# Measured values taken from ChEMBL document CHEMBL6121044, “Discovery of Novel Spirocyclic MAT2A Inhibitors Demonstrating High In Vivo Efficacy in MTAP-Null Xenograft Models” (J Med Chem, 2025).
# pIC50: −log10 of the molar value.
# Legend:
# HCT-116 [1] = assay: Anti-tumor activity against human HCT-116 MATP(-/-) cells xenografted in mouse model assessed as tumor growth inhibition at 200 mg/kg QD relative to control; type: functional; conditions: read-out: TGI
# HCT-116 [2] = assay: Antiproliferative activity against MTAP-knock out human HCT-116 cells assessed as maximal inhibition rate at 10 uM measured after 5 days by CTG assay relative to control; type: functional; conditions: time 5 day
# [3] = Microsomal metabolic stability in mouse liver microsomes assessed as clearance; type: ADME, Microsome; conditions: read-out: CLH
# [4] = Microsomal metabolic stability in human liver microsomes assessed as clearance; type: ADME, Microsome; conditions: read-out: CLH
# HCT-116 [5] = assay: Antiproliferative activity against MTAP-knock out human HCT-116 cells assessed as proliferation inhibition rate measured after 5 days by CTG assay; type: functional, cell-based; conditions: HCT-116, 120 h
# [6] = Lipophilicity, log D of compound at pH 7.4 byHPLC method; type: physicochemical; conditions: buffer
# [7] = biological target: S-adenosylmethionine synthase isoform type-2 (Homo sapiens, UniProt P31153); assay: Inhibition of MAT2A (unknown origin) assessed as release of inorganic phosphate using ATP/L-methionine pre-incubated for 30 mins followed by substrate addition measured after 2.5 hrs by colorimetric assay
# Chain of S-adenosylmethionine synthase isoform type-2 (P31153 whole entry, canonical isoform): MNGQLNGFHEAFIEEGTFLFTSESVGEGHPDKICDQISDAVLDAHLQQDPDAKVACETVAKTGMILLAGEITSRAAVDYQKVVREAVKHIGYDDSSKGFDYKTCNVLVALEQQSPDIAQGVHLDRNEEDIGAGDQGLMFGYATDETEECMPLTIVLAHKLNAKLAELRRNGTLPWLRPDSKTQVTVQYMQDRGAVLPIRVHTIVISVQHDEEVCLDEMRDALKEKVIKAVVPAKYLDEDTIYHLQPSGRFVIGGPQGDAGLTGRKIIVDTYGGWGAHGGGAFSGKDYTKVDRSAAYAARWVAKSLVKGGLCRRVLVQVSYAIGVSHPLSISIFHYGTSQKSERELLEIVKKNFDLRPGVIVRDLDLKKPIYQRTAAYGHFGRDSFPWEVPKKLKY
# HCT-116 [8] = assay: Anti-tumor activity against human HCT-116 MATP(-/-) cells xenografted in mouse model assessed as tumor growth inhibition at 30 mg/kg QD relative to control; type: functional; conditions: read-out: TGI
# [9] = AUC (0 to infinity) in male ICR mouse at 10 mg/kg, po and 2 mg/kg, iv measured upto 24 hrs; type: ADME, organism-based; conditions: in vivo
# [10] = Volume of distribution at steady state in male ICR mouse at 10 mg/kg, po and 2 mg/kg, iv measured upto 24 hrs; type: ADME, organism-based; conditions: in vivo
# [11] = Half life in male ICR mouse at 10 mg/kg, po and 2 mg/kg, iv measured upto 24 hrs; type: ADME, organism-based; conditions: in vivo
# [12] = Clearance in male ICR mouse at 10 mg/kg, po and 2 mg/kg, iv measured upto 24 hrs; type: ADME, organism-based; conditions: in vivo
CLint scaled [3] [mL/min/kg],CLint scaled [4] [mL/min/kg],pIC50 (HCT-116 [5]),logD [6],pIC50 [7],AUC(0-inf) [9] [ng·h/mL],Vdss [10] [L/kg],half-life [11] [h],clearance [12] [mL/min/kg],SMILES,inhibition in vivo at 200 mg/kg (HCT-116 [1]) [%],Imax (HCT-116 [2]) [%],inhibition in vivo at 30 mg/kg (HCT-116 [8]) [%]
40.3,< 9.3,6.31,,,,,,,COc1ccc(-c2c(Nc3ccccn3)[nH]c3c(C4=CCCCC4)c(-c4ccccc4)nn3c2=O)cc1,52,100,
,,,2.4,7.19,,,,,C=C(c1ccc2c(c1)C1(CCc3ncccc31)C(=O)N=C2NC)C(F)(F)F (centres undefined),,,
,,6.62,2.21,7.89,,,,,CNC1=NC(=O)C2(CCc3ncccc32)c2cc(C3CC3)cc(F)c21 (centres undefined),,78.29,
,,,,,,,,,Cn1cnc2c(=O)n(-c3cccnc3C3CC3)c3cc(Cl)ccc3c21,,,82.9
55,< 9.3,7.00,1.57,8.05,,,,,CNC1=NC(=O)C2(CCc3ncccc32)c2cc(C(C)(F)F)ccc21 (centres undefined),,100,
,,5.29,,6.94,,,,,CNC1=NC(=O)C2(COc3ccccc32)c2nc(C(F)(F)F)ccc21 (centres undefined),,51.99,
,,< 5.00,,7.11,,,,,CNC1=NC(=O)C2(CC(C)(C)c3ccccc32)c2nc(C(F)(F)F)ccc21 (centres undefined),,,
71.6,< 9.3,5.33,,7.48,,,,,CNC1=NC(=O)C2(CCc3cc(F)ccc32)c2nc(C(F)(F)F)ccc21 (centres undefined),,55.77,
,,,,< 5.52,,,,,CNC1=NC(=O)C2(OCc3ccccc32)c2nc(C(F)(F)F)ccc21 (centres undefined),,,
,,,,7.26,,,,,CNC1=NC(=O)C2(Cc3ccccc3C2)c2nc(C(F)(F)F)ccc21,,,
38.9,< 9.3,7.31,2.2,8.40,12300,1.02,2.1,11.4,[2H]C([2H])([2H])NC1=NC(=O)[C@]2(CCc3ncccc32)c2cc(C3CC3)c(F)cc21,,77,
38.9,< 9.3,7.08,2.24,8.40,,,,,CNC1=NC(=O)C2(CCc3ncccc32)c2cc(C3CC3)c(F)cc21 (centres undefined),,84.78,
,,5.61,1.95,7.80,,,,,CNC1=NC(=O)C2(CCc3ncccc32)c2cc(C=C(F)F)ccc21 (centres undefined),,96.49,
,,,,6.23,,,,,CNC1=NC(=O)C2(CCc3cccnc32)c2nc(C(F)(F)F)ccc21 (centres undefined),,,
,,,,7.74,,,,,CNC1=NC(=O)C2(CCc3c(Br)cccc32)c2nc(C(F)(F)F)ccc21 (centres undefined),,,
,,5.98,1.1,7.33,,,,,CNC1=NC(=O)C2(CCc3ncccc32)c2cc(C3CC3)ncc21 (centres undefined),,79.52,
< 9.3,< 9.3,,,,,,,,COC1(C(=O)N2Cc3nc(Cl)nc(N[C@H](C)c4cc(N)cc(C(F)(F)F)c4)c3C2)CCOCC1,,,
,,,,7.24,,,,,CNC1=NC(=O)C(C)(c2ccccc2)c2nc(C(F)(F)F)ccc21 (centres undefined),,,
,,6.71,1.36,8.10,,,,,CNC1=NC(=O)C2(CCc3ncccc32)c2cc(OC(F)F)ccc21 (centres undefined),,83.08,
,,6.65,,7.62,,,,,CNC1=NC(=O)C2(CCc3cccc(F)c32)c2nc(C(F)(F)F)ccc21 (centres undefined),,71.66,
193,24.1,7.24,,7.92,,,,,CNC1=NC(=O)C2(CCCc3ccccc32)c2nc(C(F)(F)F)ccc21 (centres undefined),,74.25,

CLint scaled [3] [mL/min/kg],CLint scaled [4] [mL/min/kg],pIC50 (HCT-116 [5]),logD [6],pIC50 [7],AUC(0-inf) [9] [ng·h/mL],Vdss [10] [L/kg],half-life [11] [h],clearance [12] [mL/min/kg],SMILES,inhibition in vivo at 200 mg/kg (HCT-116 [1]) [%],Imax (HCT-116 [2]) [%],inhibition in vivo at 30 mg/kg (HCT-116 [8]) [%]
,,4.63,,7.26,,,,,CNC1=NC(=O)C2(CCc3ccc(F)cc32)c2nc(C(F)(F)F)ccc21 (centres undefined),,52.53,
48.2,< 9.3,5.96,,7.74,,,,,CNC1=NC(=O)C2(CCc3c(C#N)cccc32)c2nc(C(F)(F)F)ccc21 (centres undefined),,76.16,
63,11.2,7.26,1.92,8.40,22000,1.26,1.47,13.1,[2H]C([2H])([2H])NC1=NC(=O)[C@]2(CCc3ncccc32)c2cc(C3CC3)ccc21,,78.6,
59,< 9.3,7.77,,8.15,6020,3.665,2.05,29.3,CNC1=NC(=O)C2(CCc3ccccc32)c2nc(C(F)(F)F)ccc21 (centres undefined),,77.71,
,,6.39,2.55,8.22,,,,,CNC1=NC(=O)C2(CCc3ncccc32)c2cc(C(F)(F)C(F)(F)F)ccc21 (centres undefined),,66.34,
< 29.3,< 9.3,7.15,1.87,8.40,14200,1.15,1.58,11.2,[2H]C([2H])([2H])NC1=NC(=O)[C@]2(CCc3ncccc32)c2cc(C(C)(F)F)c(F)cc21,,85.98,
67,< 9.3,6.83,,8.05,18600,2.42,3.35,9.06,CNC1=NC(=O)C2(CCc3ncccc32)c2nc(C(F)(F)F)ccc21 (centres undefined),,87.63,
85.7,12.3,7.18,1.92,8.22,,,,,CNC1=NC(=O)C2(CCc3ncccc32)c2cc(C3CC3)ccc21 (centres undefined),,97.11,
118,13.4,6.98,,7.96,,,,,CNC1=NC(=O)C2(CCc3c(F)cccc32)c2nc(C(F)(F)F)ccc21 (centres undefined),,86.45,
,,6.84,2.77,8.40,,,,,O=C1N=C(NC2CC2)c2ccc(C(F)(F)F)cc2C12CCc1ncccc12 (racemic),,71.61,
42.5,< 9.3,6.94,1.82,8.10,56700,1.39,3.64,5.13,[2H]C([2H])([2H])NC1=NC(=O)C2(CCc3ncccc32)c2cc(C(F)(F)F)ccc21 (racemic),,92,
,,6.55,2.88,8.30,,,,,O=C1N=C(NC2CC(F)(F)C2)c2ccc(C(F)(F)F)cc2C12CCc1ncccc12 (racemic),,77.73,
,,6.74,3.29,7.92,,,,,COc1cc(NC2=NC(=O)C3(CCc4ncccc43)c3cc(C(F)(F)F)ccc32)ccn1 (racemic),,56.22,
< 29.3,< 9.3,6.58,2.73,8.00,,,,,O=C1N=C(NCC(F)(F)F)c2ccc(C(F)(F)F)cc2C12CCc1ncccc12 (racemic),,101.9,
,,,1.57,< 5.52,,,,,O=C1N=C(NC2COC2)c2ccc(C(F)(F)F)cc2C12CCc1ncccc12 (racemic),,,
,,6.92,2.24,7.72,,,,,CN(C)C1=NC(=O)C2(CCc3ncccc32)c2cc(C(F)(F)F)ccc21 (racemic),,79.25,
< 9.6,< 9.6,7.00,1.76,8.40,20400,1.68,1.92,8.48,NC1=NC(=O)C2(CCc3ncccc32)c2cc(C(F)(F)F)ccc21 (racemic),,75.59,
51.2,< 9.3,7.01,1.83,7.96,35200,2.2,3.53,6.77,CNC1=NC(=O)C2(CCc3ncccc32)c2cc(C(F)(F)F)ccc21 (racemic),,93.27,
,,,,8.52,,,,,"CNc1nc(=O)n(-c2ccccc2Cl)c2nc(C(F)(F)F)ccc12 (single isomer, unassigned; atropisomer 1)",,,
,,,,7.07,,,,,"CNc1nc(=O)n(-c2ccccc2Cl)c2nc(C(F)(F)F)ccc12 (single isomer, unassigned; atropisomer 2)",,,
,,,,8.52,,,,,"Nc1nc(=O)n(-c2ccccc2Cl)c2nc(C(F)(F)F)ccc12 (single isomer, unassigned; atropisomer A)",,,
